Data taken from ChEMBL document CHEMBL4385605, “Synthesis and Structure-Affinity Relationships of Spirocyclic Benzopyrans with Exocyclic Amino Moiety” (J Med Chem, 2019).
Activity calls are given as the source filed them. The calls are words filed in the database; no cut-off is given here.

Tests used:
[1] = molecular target: T1, Sigma intracellular receptor 2 (Rattus norvegicus, UniProt Q5U3Y7); experiment: Displacement of [3H]-di-o-tolylguanidine from sigma2 receptor in rat liver membranes incubated for 120 mins in the presence of sigma1 receptor ligand (+)-pentazocine by scintillation counting method; assay type: cell membranes
T1 sequence (Q5U3Y7 whole entry): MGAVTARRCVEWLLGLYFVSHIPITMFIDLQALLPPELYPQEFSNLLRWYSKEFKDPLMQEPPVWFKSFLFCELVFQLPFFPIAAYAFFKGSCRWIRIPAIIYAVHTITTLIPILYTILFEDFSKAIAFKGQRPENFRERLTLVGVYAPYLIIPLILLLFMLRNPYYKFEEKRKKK

Sus scrofa = species: Sus scrofa; experiment: Displacement of [3H]-(+)-MK-801 from PCP binding site of NMDA receptor in pig brain cortex membranes up to 1 uM after 120 mins by scintillation counting analysis; assay type: cell membranes
[2] = molecular target: Delta-type opioid receptor (Rattus norvegicus, UniProt P33533); experiment: Displacement of [3H]DPDPE from delta opioid receptor in rat membranes after 120 mins by scintillation counting analysis; assay type: cell membranes
Cavia porcellus = species: Cavia porcellus; experiment: Selectivity ratio of Ki for displacement of [3H](+)-pentazocine from sigma 1 receptor in guinea pig brain cortex membranes to Ki for displacement of [3H]DAMGO from mu opioid receptor in guinea pig brain membranes; assay type: cell membranes
[3] = Selectivity ratio of Ki for displacement of [3H]DTG from sigma2 receptor in rat liver membranes to Ki for displacement of (+)-[3H]pentazocine from sigma 1 receptor in guinea pig brain cortex membranes; assay type: cell membranes
Mu-type opioid receptor [4] = molecular target: Mu-type opioid receptor (Cavia porcellus, UniProt P97266); experiment: Displacement of [3H]DAMGO from mu opioid receptor in guinea pig brain membranes after 120 mins by scintillation counting analysis; assay type: cell membranes
[5] = molecular target: Sigma intracellular receptor 2 (Homo sapiens, UniProt Q5BJF2); experiment: Displacement of [3H]-di-o-tolylguanidine from sigma2 receptor in human RT4 cell membranes at 1 uM after 120 mins in the presence of sigma1 receptor ligand (+)-pentazocine by scintillation counting method relative to control
[6] = molecular target: Kappa-type opioid receptor (Cavia porcellus, UniProt P41144); experiment: Displacement of [3H]U69,593 from kappa opioid receptor in guinea pig brain membrane after 120 mins by scintillation counting analysis; assay type: cell membranes
[7] = molecular target: Sodium-dependent serotonin transporter (Homo sapiens) (UniProt P31645); experiment: Binding affinity to serotonin transporter (unknown origin) at 1 uM
[8] = Metabolic stability in human liver microsomes assessed as parent compound remaining at 1 uM in the presence of NADPH regenerating system after 60 mins by UPLC/MS analysis; assay type: ADME, Microsome; details: read-out: Stability
[9] = molecular target: Sigma non-opioid intracellular receptor 1 (Cavia porcellus, UniProt Q60492); experiment: Displacement of [3H](+)-pentazocine from sigma 1 receptor in guinea pig brain cortex membranes after 120 mins by scintillation counting analysis; assay type: cell membranes
[10] = molecular target: T2, Alpha-2A adrenergic receptor (Homo sapiens) (UniProt P08913); experiment: Binding affinity to alpha 2a adrenergic receptor (unknown origin) at 1 uM relative to control
T2 sequence (whole entry): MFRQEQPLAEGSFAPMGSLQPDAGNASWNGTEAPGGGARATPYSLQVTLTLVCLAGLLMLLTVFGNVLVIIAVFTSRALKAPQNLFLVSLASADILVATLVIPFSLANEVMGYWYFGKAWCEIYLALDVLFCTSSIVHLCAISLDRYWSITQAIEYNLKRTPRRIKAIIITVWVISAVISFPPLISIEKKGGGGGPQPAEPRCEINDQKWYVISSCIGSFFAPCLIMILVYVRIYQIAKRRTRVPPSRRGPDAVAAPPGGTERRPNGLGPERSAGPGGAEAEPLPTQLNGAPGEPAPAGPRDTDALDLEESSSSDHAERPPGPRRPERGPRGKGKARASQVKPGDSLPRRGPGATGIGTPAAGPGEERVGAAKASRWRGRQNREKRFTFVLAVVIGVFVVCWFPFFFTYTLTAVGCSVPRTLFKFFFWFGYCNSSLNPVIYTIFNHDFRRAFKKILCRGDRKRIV

[11] = molecular target: 5-hydroxytryptamine receptor 2B (Homo sapiens) (UniProt P41595); experiment: Binding affinity to 5-HT2BR (unknown origin) at 1 uM relative to control
Cytochrome P450 2C9 = Cytochrome P450 2C9 (Homo sapiens, UniProt P11712); experiment: Inhibition of recombinant human CYP2C9 at 1 uM by fluorescence assay; assay type: ADME; details: recombinant enzyme
HepG2 [12] = experiment: Cytotoxicity against human HepG2 cells at 1 to 100 uM incubated for 20 hrs under serum free condition by neutral red uptake assay; assay type: cell-based; details: hepg2, 20 h
[13] = molecular target: Sodium-dependent noradrenaline transporter (Homo sapiens) (UniProt P23975); experiment: Binding affinity to noradrenaline transporter (unknown origin) at 1 uM
[14] = molecular target: Sodium-dependent dopamine transporter (Homo sapiens) (UniProt Q01959); experiment: Binding affinity to dopamine transporter (unknown origin) at 1 uM
[15] = molecular target: Sigma non-opioid intracellular receptor 1 (Homo sapiens, UniProt Q99720); experiment: Displacement of [3H](+)-pentazocine from sigma 1 receptor in human RPMI8226 cell membranes incubated for 2 hrs under shaking by scintillation counting analysis
Cytochrome P450 3A4 = Cytochrome P450 3A4 (Homo sapiens, UniProt P08684); experiment: Inhibition of recombinant human CYP3A4 at 1 uM by fluorescence assay; assay type: ADME; details: recombinant enzyme
[16] = molecular target: T3, Alpha-1A adrenergic receptor (Homo sapiens) (UniProt P35348); experiment: Binding affinity to alpha 1a adrenergic receptor (unknown origin) at 1 uM relative to control
T3 sequence (whole entry): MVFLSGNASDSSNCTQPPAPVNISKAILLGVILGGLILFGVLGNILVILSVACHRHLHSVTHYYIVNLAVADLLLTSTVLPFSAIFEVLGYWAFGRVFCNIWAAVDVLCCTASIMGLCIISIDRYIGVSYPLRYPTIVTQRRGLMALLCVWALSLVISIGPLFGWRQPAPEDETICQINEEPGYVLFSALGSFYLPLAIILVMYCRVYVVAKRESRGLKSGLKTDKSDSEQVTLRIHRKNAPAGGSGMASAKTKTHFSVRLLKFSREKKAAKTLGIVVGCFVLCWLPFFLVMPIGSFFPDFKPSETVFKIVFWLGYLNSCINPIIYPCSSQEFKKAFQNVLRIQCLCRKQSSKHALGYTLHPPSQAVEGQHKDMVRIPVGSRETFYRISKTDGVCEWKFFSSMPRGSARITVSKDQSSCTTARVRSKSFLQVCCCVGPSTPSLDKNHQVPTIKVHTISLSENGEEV

CYP2D6 = CYP2D6 (Homo sapiens, UniProt P10635); experiment: Inhibition of recombinant human CYP2D6 at 1 uM by fluorescence assay relative to control; assay type: ADME
Cytochrome P450 2C19 = Cytochrome P450 2C19 (Homo sapiens, UniProt P33261); experiment: Inhibition of recombinant human CYP2C19 at 1 uM by fluorescence assay; assay type: ADME; details: recombinant enzyme
[17] = molecular target: T4, 5-hydroxytryptamine receptor 1A (Homo sapiens) (UniProt P08908); experiment: Binding affinity to 5-HT1AR (unknown origin) at 1 uM relative to control
T4 sequence (whole entry): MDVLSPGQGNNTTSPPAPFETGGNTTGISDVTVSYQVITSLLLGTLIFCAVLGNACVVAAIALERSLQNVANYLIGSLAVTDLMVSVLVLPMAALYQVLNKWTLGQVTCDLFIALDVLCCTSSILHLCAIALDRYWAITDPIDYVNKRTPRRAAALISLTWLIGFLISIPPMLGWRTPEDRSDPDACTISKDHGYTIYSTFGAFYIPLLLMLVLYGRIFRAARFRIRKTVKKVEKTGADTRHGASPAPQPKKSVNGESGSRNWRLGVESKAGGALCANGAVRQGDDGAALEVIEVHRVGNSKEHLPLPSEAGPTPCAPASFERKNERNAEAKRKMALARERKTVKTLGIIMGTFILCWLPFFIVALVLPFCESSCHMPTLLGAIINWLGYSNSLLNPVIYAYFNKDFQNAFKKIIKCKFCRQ

HepG2 [18] = experiment: Cytotoxicity against human HepG2 cells at 1 to 100 uM incubated for 20 hrs under serum free condition by MTT assay; assay type: cell-based; details: hepg2, 20 h
Cytochrome P450 1A2 = molecular target: T5, Cytochrome P450 1A2 (Homo sapiens, UniProt P05177); experiment: Inhibition of recombinant human CYP1A2 at 1 uM by fluorescence assay; assay type: ADME; details: recombinant enzyme
T5 sequence (P05177 whole entry): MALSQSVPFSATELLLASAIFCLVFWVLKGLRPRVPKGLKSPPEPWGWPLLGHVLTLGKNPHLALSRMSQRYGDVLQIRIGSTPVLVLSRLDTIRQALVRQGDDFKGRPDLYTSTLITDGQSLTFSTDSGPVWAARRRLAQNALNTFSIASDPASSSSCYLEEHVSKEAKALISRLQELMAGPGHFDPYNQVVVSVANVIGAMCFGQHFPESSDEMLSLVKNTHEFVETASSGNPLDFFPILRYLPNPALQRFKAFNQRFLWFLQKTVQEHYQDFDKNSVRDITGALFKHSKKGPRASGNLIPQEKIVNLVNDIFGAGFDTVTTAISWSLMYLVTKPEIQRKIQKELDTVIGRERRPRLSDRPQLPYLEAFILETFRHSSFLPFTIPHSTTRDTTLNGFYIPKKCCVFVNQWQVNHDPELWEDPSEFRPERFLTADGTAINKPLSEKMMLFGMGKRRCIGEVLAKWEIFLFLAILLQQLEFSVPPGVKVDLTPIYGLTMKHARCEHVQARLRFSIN

[19] = molecular target: Sigma intracellular receptor 2 (Rattus norvegicus) (UniProt Q5U3Y7); experiment: Displacement of [3H]-di-o-tolylguanidine from sigma2 receptor in rat liver membranes at 1 uM incubated for 120 mins in the presence of sigma1 receptor ligand (+)-pentazocine by scintillation counting method relative to control; assay type: cell membranes
[20] = molecular target: Mu-type opioid receptor (Cavia porcellus) (UniProt P97266); experiment: Displacement of [3H]DAMGO from mu opioid receptor in guinea pig brain membranes at 1 uM after 120 mins by scintillation counting analysis relative to control; assay type: cell membranes
Mu-type opioid receptor [21] = molecular target: Mu-type opioid receptor (Homo sapiens, UniProt P35372); experiment: Binding affinity to human mu opioid receptor by cell based assay
[22] = molecular target: Delta-type opioid receptor (Rattus norvegicus) (UniProt P33533); experiment: Displacement of [3H]DPDPE from delta opioid receptor in rat membrane at 1 uM after 120 mins by scintillation counting analysis relative to control; assay type: cell membranes
Chain of Delta-type opioid receptor (Rattus norvegicus) (P33533 whole entry): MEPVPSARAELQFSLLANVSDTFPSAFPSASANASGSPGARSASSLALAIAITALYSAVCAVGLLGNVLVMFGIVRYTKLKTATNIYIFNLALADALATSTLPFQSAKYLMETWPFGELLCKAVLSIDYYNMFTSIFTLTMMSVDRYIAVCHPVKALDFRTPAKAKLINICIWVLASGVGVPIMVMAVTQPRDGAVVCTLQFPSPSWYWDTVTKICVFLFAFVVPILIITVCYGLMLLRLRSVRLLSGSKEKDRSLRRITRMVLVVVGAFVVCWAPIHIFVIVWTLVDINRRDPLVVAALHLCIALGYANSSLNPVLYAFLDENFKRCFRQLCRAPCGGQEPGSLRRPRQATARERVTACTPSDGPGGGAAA

Chain of Cytochrome P450 2C19 (P33261 whole entry): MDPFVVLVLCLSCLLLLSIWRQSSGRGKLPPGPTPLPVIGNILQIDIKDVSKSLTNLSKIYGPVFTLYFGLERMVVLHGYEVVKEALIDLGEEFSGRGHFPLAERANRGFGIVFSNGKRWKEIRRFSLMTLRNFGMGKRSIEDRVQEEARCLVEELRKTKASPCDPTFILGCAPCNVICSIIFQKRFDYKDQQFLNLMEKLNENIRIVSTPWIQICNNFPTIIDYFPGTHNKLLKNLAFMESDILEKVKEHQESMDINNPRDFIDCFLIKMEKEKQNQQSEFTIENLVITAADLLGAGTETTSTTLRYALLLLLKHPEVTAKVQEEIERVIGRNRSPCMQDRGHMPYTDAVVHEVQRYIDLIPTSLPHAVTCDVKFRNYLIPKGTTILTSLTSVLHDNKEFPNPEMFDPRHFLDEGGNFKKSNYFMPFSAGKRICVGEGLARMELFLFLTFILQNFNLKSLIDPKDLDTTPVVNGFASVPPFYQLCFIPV
Chain of Kappa-type opioid receptor (P41144 whole entry): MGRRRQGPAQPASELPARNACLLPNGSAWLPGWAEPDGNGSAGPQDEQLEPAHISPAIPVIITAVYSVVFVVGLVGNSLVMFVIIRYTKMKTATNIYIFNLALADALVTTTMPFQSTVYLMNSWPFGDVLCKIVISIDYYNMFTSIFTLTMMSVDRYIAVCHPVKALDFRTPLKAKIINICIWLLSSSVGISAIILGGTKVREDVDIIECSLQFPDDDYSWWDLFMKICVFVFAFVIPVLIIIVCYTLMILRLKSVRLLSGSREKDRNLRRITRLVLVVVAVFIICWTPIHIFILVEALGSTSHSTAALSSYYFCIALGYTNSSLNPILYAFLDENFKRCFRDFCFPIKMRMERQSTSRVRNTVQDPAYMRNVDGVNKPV
Chain of Sodium-dependent serotonin transporter (Homo sapiens) (P31645 whole entry, looked up): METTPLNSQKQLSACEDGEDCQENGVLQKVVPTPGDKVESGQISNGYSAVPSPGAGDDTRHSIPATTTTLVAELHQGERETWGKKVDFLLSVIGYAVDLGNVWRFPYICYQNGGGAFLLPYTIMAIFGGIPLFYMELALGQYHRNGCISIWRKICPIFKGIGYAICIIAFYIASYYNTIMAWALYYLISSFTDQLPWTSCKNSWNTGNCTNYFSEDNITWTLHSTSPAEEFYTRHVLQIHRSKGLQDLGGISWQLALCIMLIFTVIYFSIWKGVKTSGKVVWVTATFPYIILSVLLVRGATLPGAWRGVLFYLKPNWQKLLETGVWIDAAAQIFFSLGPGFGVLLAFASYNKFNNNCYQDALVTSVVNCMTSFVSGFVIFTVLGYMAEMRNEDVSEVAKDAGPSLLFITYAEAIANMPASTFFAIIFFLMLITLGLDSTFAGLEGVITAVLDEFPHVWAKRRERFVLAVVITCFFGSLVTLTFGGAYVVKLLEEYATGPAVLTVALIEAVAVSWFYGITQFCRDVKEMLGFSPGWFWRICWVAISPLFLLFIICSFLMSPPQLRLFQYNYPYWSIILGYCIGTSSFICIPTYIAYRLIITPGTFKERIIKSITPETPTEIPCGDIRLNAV
Chain of CYP2D6 (P10635 whole entry): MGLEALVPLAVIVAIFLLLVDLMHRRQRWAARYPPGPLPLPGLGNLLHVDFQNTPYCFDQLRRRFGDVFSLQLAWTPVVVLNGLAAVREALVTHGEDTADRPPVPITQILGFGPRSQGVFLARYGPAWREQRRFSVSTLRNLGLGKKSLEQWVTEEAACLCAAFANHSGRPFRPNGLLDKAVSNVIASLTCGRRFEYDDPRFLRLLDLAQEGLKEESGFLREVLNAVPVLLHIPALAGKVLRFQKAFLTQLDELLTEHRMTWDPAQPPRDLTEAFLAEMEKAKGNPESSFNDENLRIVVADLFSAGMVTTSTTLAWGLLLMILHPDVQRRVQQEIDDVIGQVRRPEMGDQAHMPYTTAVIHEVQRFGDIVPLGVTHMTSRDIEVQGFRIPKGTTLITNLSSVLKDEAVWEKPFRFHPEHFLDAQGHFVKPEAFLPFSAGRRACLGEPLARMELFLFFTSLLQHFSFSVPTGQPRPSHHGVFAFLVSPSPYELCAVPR
Chain of Sigma non-opioid intracellular receptor 1 (Cavia porcellus, UniProt Q60492) (Q60492 whole entry): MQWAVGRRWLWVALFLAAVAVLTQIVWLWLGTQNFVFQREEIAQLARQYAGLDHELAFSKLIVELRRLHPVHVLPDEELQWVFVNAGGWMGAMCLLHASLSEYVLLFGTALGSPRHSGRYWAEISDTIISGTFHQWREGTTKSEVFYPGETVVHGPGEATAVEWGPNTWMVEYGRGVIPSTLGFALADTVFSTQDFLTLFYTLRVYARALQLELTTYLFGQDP
Chain of Mu-type opioid receptor (Cavia porcellus, UniProt P97266) (P97266 whole entry): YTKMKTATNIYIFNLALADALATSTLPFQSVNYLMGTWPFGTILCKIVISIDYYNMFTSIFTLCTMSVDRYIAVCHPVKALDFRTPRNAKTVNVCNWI
Chain of Delta-type opioid receptor (P33533 whole entry): as the sequence (P33533 whole entry) above
Chain of Cytochrome P450 2C9 (P11712 whole entry): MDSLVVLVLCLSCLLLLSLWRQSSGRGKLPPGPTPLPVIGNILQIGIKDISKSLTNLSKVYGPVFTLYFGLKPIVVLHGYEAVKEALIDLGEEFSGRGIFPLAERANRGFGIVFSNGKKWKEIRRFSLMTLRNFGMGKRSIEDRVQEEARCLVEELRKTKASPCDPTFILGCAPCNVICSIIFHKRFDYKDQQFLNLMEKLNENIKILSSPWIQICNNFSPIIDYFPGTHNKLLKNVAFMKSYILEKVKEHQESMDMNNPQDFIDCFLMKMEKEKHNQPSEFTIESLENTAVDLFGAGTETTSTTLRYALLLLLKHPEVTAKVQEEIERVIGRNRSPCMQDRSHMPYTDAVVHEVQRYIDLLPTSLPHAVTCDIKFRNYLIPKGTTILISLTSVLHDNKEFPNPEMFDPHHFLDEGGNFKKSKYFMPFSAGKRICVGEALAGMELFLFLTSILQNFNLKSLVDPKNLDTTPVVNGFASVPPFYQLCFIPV
Chain of Cytochrome P450 3A4 (P08684 whole entry): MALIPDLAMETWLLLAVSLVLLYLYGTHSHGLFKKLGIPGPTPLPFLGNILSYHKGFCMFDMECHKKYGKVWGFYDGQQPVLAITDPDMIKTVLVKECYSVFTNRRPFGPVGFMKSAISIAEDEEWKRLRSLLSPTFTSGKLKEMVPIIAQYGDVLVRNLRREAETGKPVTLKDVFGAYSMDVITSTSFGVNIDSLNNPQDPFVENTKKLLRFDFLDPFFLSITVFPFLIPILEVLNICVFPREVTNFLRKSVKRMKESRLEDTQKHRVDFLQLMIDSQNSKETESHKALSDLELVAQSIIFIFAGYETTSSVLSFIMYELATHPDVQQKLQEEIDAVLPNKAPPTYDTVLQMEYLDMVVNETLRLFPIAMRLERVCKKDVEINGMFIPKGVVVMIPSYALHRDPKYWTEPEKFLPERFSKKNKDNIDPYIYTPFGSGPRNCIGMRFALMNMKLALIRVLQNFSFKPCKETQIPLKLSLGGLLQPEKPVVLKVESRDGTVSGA
Chain of Sigma non-opioid intracellular receptor 1 (Homo sapiens, UniProt Q99720) (Q99720 whole entry): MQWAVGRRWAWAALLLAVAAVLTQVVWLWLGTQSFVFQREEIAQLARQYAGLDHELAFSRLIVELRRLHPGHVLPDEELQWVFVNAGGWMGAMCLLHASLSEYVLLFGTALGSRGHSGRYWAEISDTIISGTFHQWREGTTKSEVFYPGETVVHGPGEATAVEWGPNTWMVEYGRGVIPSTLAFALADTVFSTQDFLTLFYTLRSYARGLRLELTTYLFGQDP
Chain of Sodium-dependent noradrenaline transporter (Homo sapiens) (P23975 whole entry): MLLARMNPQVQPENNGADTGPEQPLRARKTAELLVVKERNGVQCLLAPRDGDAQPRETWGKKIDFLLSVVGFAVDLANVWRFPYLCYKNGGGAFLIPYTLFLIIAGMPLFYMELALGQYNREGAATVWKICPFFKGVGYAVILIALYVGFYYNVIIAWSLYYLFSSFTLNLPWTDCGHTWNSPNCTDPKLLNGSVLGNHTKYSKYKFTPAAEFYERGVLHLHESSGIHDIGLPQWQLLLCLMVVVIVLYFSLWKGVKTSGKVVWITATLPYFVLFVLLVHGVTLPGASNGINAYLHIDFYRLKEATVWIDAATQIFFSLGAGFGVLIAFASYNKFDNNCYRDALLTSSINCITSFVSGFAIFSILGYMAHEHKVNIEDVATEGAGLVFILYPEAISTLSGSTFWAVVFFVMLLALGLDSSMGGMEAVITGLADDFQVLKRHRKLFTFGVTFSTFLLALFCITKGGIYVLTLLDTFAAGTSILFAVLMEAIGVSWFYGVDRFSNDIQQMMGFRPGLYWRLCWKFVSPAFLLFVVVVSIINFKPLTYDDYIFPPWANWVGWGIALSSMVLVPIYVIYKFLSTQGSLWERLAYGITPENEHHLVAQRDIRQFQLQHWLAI
Chain of Mu-type opioid receptor (Cavia porcellus) (P97266 whole entry): as the sequence (P97266 whole entry) above
Chain of Sigma intracellular receptor 2 (Homo sapiens, UniProt Q5BJF2) (Q5BJF2 whole entry): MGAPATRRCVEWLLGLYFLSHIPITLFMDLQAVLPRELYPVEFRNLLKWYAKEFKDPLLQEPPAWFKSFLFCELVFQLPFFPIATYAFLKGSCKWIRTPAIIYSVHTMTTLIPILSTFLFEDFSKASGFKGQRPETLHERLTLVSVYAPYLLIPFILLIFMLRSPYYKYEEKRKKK

Ki [1] [nM] | Activity (Sus scrofa) | Ki [2] [nM] | Ratio Ki [3] | Ki (Mu-type opioid receptor [4]) [nM] | Ki [6] [nM] | Activity [7] | remaining at 1 h, 1 µM [8] [%] | Ki [9] [nM] | Activity [10] | Activity [11] | inhibition (INH) (Cytochrome P450 2C9) | Activity [13] | Activity [14] | Ki [15] [nM] | inhibition (INH) (Cytochrome P450 3A4) | Activity [16] | inhibition at 1 µM (CYP2D6) [%] | inhibition (INH) (Cytochrome P450 2C19) | SMILES | Activity (HepG2 [12]) | further results
2000 | inactive | 49 | 5 to 10 | 38 | 204 |  |  |  |  |  |  |  |  |  |  |  |  |  | COC1Cc2ccccc2[C@]2(CC[C@@H](NCc3ccccc3)CC2)O1 (some centres undefined) |  | Ratio Ki (Cavia porcellus): 14; inhibition [5]: 40%
329 | inactive | 1300 | 5 to 10 |  | 2300 | inactive | > 50 |  | inactive | inactive | Not Active | inactive | inactive | 39 | Not Active | inactive | > 90 | Not Active | COC1Cc2ccccc2[C@]2(CC[C@H](N(C)Cc3ccccc3)CC2)O1 (some centres undefined) | Non-Toxic | inhibition [20]: 12%; Activity [17]: inactive; Activity (HepG2 [18]): Non-Toxic; inhibition (INH) (Cytochrome P450 1A2): Not Active
1440 | inactive | 371 | 5 to 10 | 41 | 250 | inactive | > 50 |  | inactive | inactive | Not Active | inactive | inactive | 40 | Not Active | inactive | > 90 | Not Active | COC1Cc2ccccc2[C@]2(CC[C@@H](N(C)Cc3ccccc3)CC2)O1 (some centres undefined) | Non-Toxic | Activity [17]: inactive; Activity (HepG2 [18]): Non-Toxic; Ki (Mu-type opioid receptor [21]): 18 nM; inhibition (INH) (Cytochrome P450 1A2): Not Active

The next lines start with the compound.

SMILES | Ki [1] [nM] | Activity (Sus scrofa) | Ki [2] [nM] | Ratio Ki [3] | Ki (Mu-type opioid receptor [4]) [nM] | Ki [6] [nM] | Activity [7] | remaining at 1 h, 1 µM [8] [%] | Ki [9] [nM] | Activity [10] | Activity [11] | inhibition (INH) (Cytochrome P450 2C9) | Activity [13] | Activity [14] | Ki [15] [nM] | inhibition (INH) (Cytochrome P450 3A4) | Activity [16] | inhibition at 1 µM (CYP2D6) [%] | inhibition (INH) (Cytochrome P450 2C19) | Activity (HepG2 [12]) | further results
COC1Cc2ccccc2[C@]2(CC[C@@H](N(C)CC3CCCCC3)CC2)O1 (some centres undefined) | 154 | inactive | 150 | 50 | 299 | 980 | inactive | > 50 | 3.1 | inactive | inactive | Not Active | inactive | inactive | 6.9 | Not Active | inactive | > 90 | Not Active | Non-Toxic | Activity [17]: inactive; Activity (HepG2 [18]): Non-Toxic; inhibition (INH) (Cytochrome P450 1A2): Not Active
c1ccc(CN[C@H]2CC[C@@]3(CC2)OCCc2ccccc23)cc1 |  |  | 14 | 5 to 10 | 31 | 85 |  |  | 256 |  |  |  |  |  |  |  |  |  |  |  | inhibition [19]: 13%; Ratio Ki (Cavia porcellus): 8.5
COC1O[C@]2(CC[C@H](NCc3ccccc3)CC2)c2ccccc21 (some centres undefined) |  |  |  | 5 to 10 | 115 | 413 |  |  | 262 |  |  |  |  |  |  |  |  |  |  |  | inhibition [22]: 30%; inhibition [19]: 25%
